{
  "source": "paper PMC5882164",
  "about": "“A novel calcimimetic agent, evocalcet (MT-4580/KHK7580), suppresses the parathyroid cell function with little effect on the gastrointestinal tract or CYP isozymes in vivo and in vitro” (PLoS ONE, 2018)",
  "key": {"CYP2C8": {"biological_target": "T1, CYP2C8 (Homo sapiens, UniProt P10632)", "T1 construct": "from tissue; host or cells: human liver microsomes", "T1 sequence (P10632 1-490)": "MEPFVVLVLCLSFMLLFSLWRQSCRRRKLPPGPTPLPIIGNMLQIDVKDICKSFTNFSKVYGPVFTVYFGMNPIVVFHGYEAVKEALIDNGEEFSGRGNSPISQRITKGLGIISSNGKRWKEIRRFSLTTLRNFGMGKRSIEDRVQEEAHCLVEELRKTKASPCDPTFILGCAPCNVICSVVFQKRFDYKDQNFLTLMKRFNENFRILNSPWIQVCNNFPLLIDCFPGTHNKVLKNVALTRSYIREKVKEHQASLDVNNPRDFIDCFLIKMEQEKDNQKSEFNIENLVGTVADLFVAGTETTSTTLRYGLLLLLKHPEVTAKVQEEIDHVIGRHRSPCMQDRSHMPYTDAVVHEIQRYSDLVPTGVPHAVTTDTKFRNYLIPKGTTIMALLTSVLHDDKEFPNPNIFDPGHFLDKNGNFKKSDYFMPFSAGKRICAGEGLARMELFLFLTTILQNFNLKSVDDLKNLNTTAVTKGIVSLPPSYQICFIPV", "test": "CYP inhibition assay in human liver microsomes", "type": "in vitro ADME", "details": "no pre-incubation, read-out: IC50 direct inhibition of CYP2C8", "experimental": "The direct inhibition of evocalcet (0.15~50 μM, 6-point concentrations) against the specific activities of 9 CYP isozymes (CYP1A2, CYP2A6, CYP2B6, CYP2C8, CYP2C9, CYP2C19, CYP2D6, CYP2E1, and CYP3A4/5) was examined in human liver microsomes without the pre-incubation of evocalcet, in the presence of the NADPH-generating system. Each CYP substrate was incubated with human liver microsomes in the absence or presence of evocalcet, and the inhibition of evocalcet for each CYP isozyme was measured."}, "human CaR": {"biological_target": "T2, human CaR (Homo sapiens, UniProt P41180)", "T2 construct": "expressed in transfected cells", "T2 sequence (P41180 20-1078)": "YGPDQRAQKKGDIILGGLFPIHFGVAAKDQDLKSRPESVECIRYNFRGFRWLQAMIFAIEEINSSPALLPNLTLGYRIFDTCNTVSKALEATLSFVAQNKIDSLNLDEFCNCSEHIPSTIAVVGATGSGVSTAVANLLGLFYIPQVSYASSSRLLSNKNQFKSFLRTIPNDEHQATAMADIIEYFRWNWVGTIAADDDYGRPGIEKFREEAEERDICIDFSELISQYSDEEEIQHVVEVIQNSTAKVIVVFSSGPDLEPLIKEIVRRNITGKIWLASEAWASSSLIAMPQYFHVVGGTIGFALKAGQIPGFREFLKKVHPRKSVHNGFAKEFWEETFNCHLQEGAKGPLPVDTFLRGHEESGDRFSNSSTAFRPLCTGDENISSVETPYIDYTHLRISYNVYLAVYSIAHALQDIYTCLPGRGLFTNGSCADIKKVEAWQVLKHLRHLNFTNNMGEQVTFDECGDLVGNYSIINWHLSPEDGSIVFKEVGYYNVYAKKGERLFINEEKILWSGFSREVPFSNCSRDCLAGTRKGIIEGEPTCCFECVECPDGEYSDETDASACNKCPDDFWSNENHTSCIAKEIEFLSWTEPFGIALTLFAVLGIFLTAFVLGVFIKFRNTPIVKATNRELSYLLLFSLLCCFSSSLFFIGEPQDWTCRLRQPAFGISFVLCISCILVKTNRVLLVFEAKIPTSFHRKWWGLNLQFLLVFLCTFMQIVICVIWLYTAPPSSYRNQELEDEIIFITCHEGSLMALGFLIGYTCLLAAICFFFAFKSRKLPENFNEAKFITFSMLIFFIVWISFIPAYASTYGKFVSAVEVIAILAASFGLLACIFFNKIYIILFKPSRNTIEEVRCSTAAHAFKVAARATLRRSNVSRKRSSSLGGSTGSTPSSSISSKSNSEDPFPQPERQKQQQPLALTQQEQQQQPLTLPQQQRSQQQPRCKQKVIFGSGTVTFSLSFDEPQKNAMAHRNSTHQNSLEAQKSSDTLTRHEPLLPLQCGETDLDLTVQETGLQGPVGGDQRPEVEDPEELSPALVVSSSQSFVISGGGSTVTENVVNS", "test": "Agonistic activity studies with HEK293 cells stably expressing human CaR (cytoplasmic Ca2+ concentration)", "type": "cell-based", "details": "hCaR-HEK293 cells", "experimental": "HEK 293 cell is obtained from Summit Pharmaceuticals International Corporation (ATCC® Number: CRL-1573^TM). The HindIII-XhoI fragment of the human CaR cDNA was subcloned into the mammalian expression vector pcDNA3.1/Hygro (+) (Invitrogen) containing the hygromycin resistance gene as a selectable marker. This plasmid was transfected into HEK 293 cells by lipofection. The transfected cells were grown in DMEM containing 10% fetal bovine serum and hygromycin B ([…]) in 96 well plate. Hygromycin-resistant colonies were subcloned and assayed for hCaR mRNA by quantitative RT-PCR. The stably transfected cell line was then selected and used for agonistic activity studies.\nEvocalcet was dissolved in dimethyl sulfoxide (DMSO) and diluted with HEPES buffer for the preparation of cells. Evocalcet solutions (3~30000 nM, 9-point concentrations) were added to a 96-well plate, and a suspension of HEK293 cells stably transfected with the human CaR was then seeded onto the plate. The ratio with the fluorescence intensity was determined continuously with a multi-label plate reader. To evaluate the agonistic activity pattern of evocalcet, calcium solutions in each concentration were added after the addition of evocalcet solutions to the plate.\nThe transient changes in the cytoplasmic calcium concentration (Δ[Ca^2+]i) induced by receptor activation were measured. (A) The effect of evocalcet on the Δ[Ca^2+]i value in hCaR-HEK293 cells. (B) The effect of evocalcet on the response rates elicited by increasing the extracellular calcium level in hCaR-HEK293 cells. The response rate was calculated using the following formula: Responserate(%)=Δ[Ca^2+]i/MaxΔ[Ca^2+]i×100 Δ[Ca^2+]i: Subtraction of basal [Ca^2+]i from maximum [Ca^2+]i observed after addition of evocalcet; Max Δ[Ca^2+]i: Δ[Ca^2+]i at the maximum Ca concentration (3 mmol/L)."}},
  "data": [
    {"smiles": "C[C@@H](N[C@H]1CCN(c2ccc(CC(=O)O)cc2)C1)c1cccc2ccccc12", "note": "[evocalcet]", "values": [
      {"measurement": "IC50", "setting": "CYP2C8", "result": "> 50000", "unit": "nM"},
      {"measurement": "Δ[Ca^2+]i", "setting": "human CaR; evocalcet 3 nmol/L", "result": 1.94, "unit": "nmol/L"},
      {"measurement": "Δ[Ca^2+]i", "setting": "human CaR; evocalcet 10 nmol/L", "result": 6.18, "unit": "nmol/L"},
      {"measurement": "Response rate", "setting": "human CaR; evocalcet 20 nmol/L, Ca concentration 0.25 mmol/L", "result": 0, "unit": "%"},
      {"measurement": "Response rate", "setting": "human CaR; evocalcet 20 nmol/L, Ca concentration 0.3 mmol/L", "result": 0, "unit": "%"},
      {"measurement": "Response rate", "setting": "human CaR; evocalcet 20 nmol/L, Ca concentration 0.6 mmol/L", "result": 0.26, "unit": "%"},
      {"measurement": "Response rate", "setting": "human CaR; evocalcet 20 nmol/L, Ca concentration 0.9 mmol/L", "result": 4.69, "unit": "%"},
      {"measurement": "Response rate", "setting": "human CaR; evocalcet 20 nmol/L, Ca concentration 1.2 mmol/L", "result": 16.07, "unit": "%"},
      {"measurement": "Response rate", "setting": "human CaR; evocalcet 20 nmol/L, Ca concentration 1.5 mmol/L", "result": 33.31, "unit": "%"},
      {"measurement": "Response rate", "setting": "human CaR; evocalcet 20 nmol/L, Ca concentration 1.8 mmol/L", "result": 52.75, "unit": "%"},
      {"measurement": "Response rate", "setting": "human CaR; evocalcet 20 nmol/L, Ca concentration 2.1 mmol/L", "result": 70.47, "unit": "%"},
      {"measurement": "Response rate", "setting": "human CaR; evocalcet 20 nmol/L, Ca concentration 2.4 mmol/L", "result": 84.37, "unit": "%"},
      {"measurement": "Response rate", "setting": "human CaR; evocalcet 20 nmol/L, Ca concentration 2.7 mmol/L", "result": 94.54, "unit": "%"},
      {"measurement": "Response rate", "setting": "human CaR; evocalcet 20 nmol/L, Ca concentration 3.0 mmol/L (maximum, reference)", "result": 100, "unit": "%"},
      {"measurement": "Δ[Ca^2+]i", "setting": "human CaR; evocalcet 30 nmol/L", "result": 17.71, "unit": "nmol/L"},
      {"measurement": "Response rate", "setting": "human CaR; evocalcet 60 nmol/L, Ca concentration 0.25 mmol/L", "result": 0, "unit": "%"},
      {"measurement": "Response rate", "setting": "human CaR; evocalcet 60 nmol/L, Ca concentration 0.3 mmol/L", "result": 0, "unit": "%"},
      {"measurement": "Response rate", "setting": "human CaR; evocalcet 60 nmol/L, Ca concentration 0.6 mmol/L", "result": 3.76, "unit": "%"},
      {"measurement": "Response rate", "setting": "human CaR; evocalcet 60 nmol/L, Ca concentration 0.9 mmol/L", "result": 16.86, "unit": "%"},
      {"measurement": "Response rate", "setting": "human CaR; evocalcet 60 nmol/L, Ca concentration 1.2 mmol/L", "result": 33.15, "unit": "%"},
      {"measurement": "Response rate", "setting": "human CaR; evocalcet 60 nmol/L, Ca concentration 1.5 mmol/L", "result": 53.86, "unit": "%"},
      {"measurement": "Response rate", "setting": "human CaR; evocalcet 60 nmol/L, Ca concentration 1.8 mmol/L", "result": 70.14, "unit": "%"},
      {"measurement": "Response rate", "setting": "human CaR; evocalcet 60 nmol/L, Ca concentration 2.1 mmol/L", "result": 81.77, "unit": "%"},
      {"measurement": "Response rate", "setting": "human CaR; evocalcet 60 nmol/L, Ca concentration 2.4 mmol/L", "result": 88.98, "unit": "%"},
      {"measurement": "Response rate", "setting": "human CaR; evocalcet 60 nmol/L, Ca concentration 2.7 mmol/L", "result": 92.99, "unit": "%"},
      {"measurement": "Response rate", "setting": "human CaR; evocalcet 60 nmol/L, Ca concentration 3.0 mmol/L (maximum, reference)", "result": 100, "unit": "%"},
      {"measurement": "Δ[Ca^2+]i", "setting": "human CaR; evocalcet 100 nmol/L", "result": 50.62, "unit": "nmol/L"},
      {"measurement": "Δ[Ca^2+]i", "setting": "human CaR; evocalcet 300 nmol/L", "result": 71.35, "unit": "nmol/L"},
      {"measurement": "Δ[Ca^2+]i", "setting": "human CaR; evocalcet 1000 nmol/L", "result": 70.70, "unit": "nmol/L"},
      {"measurement": "Δ[Ca^2+]i", "setting": "human CaR; evocalcet 3000 nmol/L", "result": 75.59, "unit": "nmol/L"},
      {"measurement": "Δ[Ca^2+]i", "setting": "human CaR; evocalcet 10000 nmol/L", "result": 78.61, "unit": "nmol/L"},
      {"measurement": "Δ[Ca^2+]i", "setting": "human CaR; evocalcet 30000 nmol/L", "result": 77.66, "unit": "nmol/L"},
      {"measurement": "EC50", "setting": "human CaR; read-out: EC50 for [Ca^2+]i", "result": 92.7, "unit": "nM"}
    ]}
  ]
}
